Assay [1] deals with T1, phospho-eIF2α binding to eIF2B (Homo sapiens, UniProt P49770+Q14232+Q9UI10).
T1 construct: endogenous in cells; host or cells: HEK293T with FLAG knock-in at the endogenous eIF2Bβ locus, treated with thapsigargin; lysate, anti-FLAG IP
The assay can be described thus: Phospho-eIF2α co-immunoprecipitation with FLAG-tagged eIF2B. To be noted: lysate of thapsigargin-treated HEK293T eIF2Bβ-FLAG cells; ligand 2 h at 4 °C. The procedure:
HEK293T cells endogenously expressing eIF2Bβ with a C-terminal FLAG tag were maintained in DMEM High Glucose (Corning CellGro) supplemented with 10% FBS (Gibco) and antibiotic-antimycotic (Gibco). Upon reaching 90% confluency, cells were treated with either DMSO or 100 nM thapsigargin (Sigma) for 4 h. Cells were harvested and lysed in 25 mM HEPES, 150 mM KCl, 1% NP-40, 1 mM EDTA, pH 7.4 + Complete protease inhibitor cocktail (Roche) and PhosStop (Roche) on ice for 20 min. Lysates were cleared by centrifugation at 18,000 × g, 20 min, 4 °C, and transferred to Eppendorf tubes containing anti-FLAG M2 magnetic beads (Sigma). Mixtures were incubated overnight at 4 °C. To test the effect of ligands, these were added to the mixtures and incubated for an additional 2 h at 4 °C. Beads were washed three times with lysis buffer, eluted with 1× LDS buffer (Invitrogen), and subjected to SDS-PAGE followed by Western Blot with the indicated antibodies.

The next assay deals with T2, eIF2Bα (Homo sapiens, UniProt Q14232).
T2 construct: made in house; host or cells: E. coli BL21(DE3)
T2 sequence (Q14232 1-305): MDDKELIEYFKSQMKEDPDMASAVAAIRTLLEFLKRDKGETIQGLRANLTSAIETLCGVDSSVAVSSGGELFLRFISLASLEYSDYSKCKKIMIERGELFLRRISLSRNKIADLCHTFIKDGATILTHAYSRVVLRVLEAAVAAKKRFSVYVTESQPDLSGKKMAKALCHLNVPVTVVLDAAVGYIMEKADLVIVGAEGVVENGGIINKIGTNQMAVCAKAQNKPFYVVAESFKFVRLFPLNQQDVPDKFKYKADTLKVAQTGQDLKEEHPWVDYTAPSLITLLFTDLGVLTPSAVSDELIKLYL
The assay can be described thus: MIDAS (mass spectrometry integrated with equilibrium dialysis) metabolite binding screen. To be noted: eIF2Bα2; 50 μM per metabolite pool; 40 h dialysis at 4 °C. The method in brief: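 Hits called at Storey q < 0.1 on z-scores of PCA-corrected log2 fold change between protein and metabolite chambers, quantified by FIA-MS in triplicate.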
On the technique in general: In equilibrium dialysis only unbound substance equilibrates across the membrane.

Assay [2] deals with T3, eIF2B in WT HEK293T lysate (Homo sapiens, UniProt P49770+Q14232+Q9UI10).
T3 construct: endogenous in cells; host or cells: HEK293T (wild type) lysate
In words: GEF activity assay with WT HEK293T lysate. Format: biochemical. The procedure: Bodipy-FL-GDP-loaded eIF2 was used as a substrate for recombinant eIF2B. The assay was performed in 384-well plates. Reactions were read on a SpectraMax i3x plate reader (Molecular Devices) using the instrument’s Softmax Pro software with the following parameters: plate temperature = 25 °C; excitation wavelength = 485 nm (15 nm width); emission wavelength = 535 nm (25 nm width); read duration = 30 min at 45 s intervals. Data were analyzed in Prism. GDP release half-lives were calculated by fitting single-exponential decay curves.
For unbiased screening, MIDAS metabolite libraries at 10 mM stock concentration were dispensed into wells of the assay plate using an Echo Acoustic Liquid Handler (Labcyte). In a final assay volume of 10 μL/well, the following conditions were kept constant: 25 nM Bodipy-FL-GDP-loaded eIF2, 4 nM phospho-eIF2, 0.1 mM GDP, 1 mg/mL BSA, 1 nM eIF2B, 10 μM metabolite. A single well was run for each metabolite. For targeted experiments with recombinant wild-type and mutant eIF2Bα, the following conditions were used: 50 nM Bodipy-FL-GDP-loaded eIF2, 0.1 mM GDP, 1 mg/ml BSA, 20 nM eIF2B. For targeted experiments with HEK293T lysates, the following conditions were used: 50 nM Bodipy-FL-GDP-loaded eIF2, 0.1 mM GDP, 1 mg/ml BSA, 0.1 or 0.3 mg/ml lysates.

A further assay has as its target eIF2Bα^V183F (Homo sapiens, UniProt Q14232, V183F). In words: Size-exclusion chromatography of recombinant eIF2Bα V183F, alone or with eIF2B(βδγε). Format: biochemical. Further details: made in house; host or cells: E. coli BL21(DE3). To be noted: SEC, recombinant eIF2B(βδγε) + eIF2Bα V183F; 200 μM F6P. As for the experimental part: Purified proteins were thawed and centrifuged at 20,000 × g, 10 min, 4 °C to remove any potential precipitate. Concentrations of eIF2B(βδγε) and eIF2Bα were normalized to 2 μM and 2.4 μM, respectively. 0.2 mL of each mixture was injected onto a Superose 6 Increase 10/300 column connected to an AKTA Pure 25 FPLC system (GE Healthcare). The system was run at 0.5 mL/min for 1 h using 25 mM HEPES, 200 mM KCl, 2 mM MgCl2, 1 mM DTT, pH 7.5 as the mobile phase. For conditions with ISRIB, the protein samples and mobile phase were supplemented with 500 nM ISRIB. For conditions with F6P, the protein samples and mobile phase were supplemented with 200 μM F6P. UV280 measurements were obtained directly by the instrument.
On the technique in general: In gel filtration, larger molecules generally elute earlier.

Experimental findings from article PMC8187479, “Sugar phosphate activation of the stress sensor eIF2B” (Nature Communications, 2021) are described below.

Sequence of eIF2Bα^V183F (Q14232 whole entry V183F): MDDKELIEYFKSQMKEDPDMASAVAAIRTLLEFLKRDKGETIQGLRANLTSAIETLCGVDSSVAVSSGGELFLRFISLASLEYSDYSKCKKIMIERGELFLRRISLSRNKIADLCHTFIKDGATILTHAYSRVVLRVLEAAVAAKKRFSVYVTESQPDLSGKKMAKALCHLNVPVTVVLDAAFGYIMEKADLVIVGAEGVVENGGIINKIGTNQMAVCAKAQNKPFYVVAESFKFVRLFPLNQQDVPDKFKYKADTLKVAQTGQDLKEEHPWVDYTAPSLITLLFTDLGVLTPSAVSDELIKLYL
Sequence of eIF2Bα^V183F (P49770 whole entry partner): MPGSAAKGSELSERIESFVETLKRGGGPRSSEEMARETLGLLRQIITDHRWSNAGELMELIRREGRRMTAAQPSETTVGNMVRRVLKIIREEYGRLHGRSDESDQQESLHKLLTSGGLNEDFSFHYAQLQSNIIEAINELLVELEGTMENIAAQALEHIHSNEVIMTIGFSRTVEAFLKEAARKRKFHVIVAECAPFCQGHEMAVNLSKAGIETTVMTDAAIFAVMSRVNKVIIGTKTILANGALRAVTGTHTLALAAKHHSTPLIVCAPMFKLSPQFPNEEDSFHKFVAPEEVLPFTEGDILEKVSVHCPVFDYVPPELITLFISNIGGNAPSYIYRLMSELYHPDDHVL
Sequence of eIF2Bα^V183F (Q9UI10 whole entry partner): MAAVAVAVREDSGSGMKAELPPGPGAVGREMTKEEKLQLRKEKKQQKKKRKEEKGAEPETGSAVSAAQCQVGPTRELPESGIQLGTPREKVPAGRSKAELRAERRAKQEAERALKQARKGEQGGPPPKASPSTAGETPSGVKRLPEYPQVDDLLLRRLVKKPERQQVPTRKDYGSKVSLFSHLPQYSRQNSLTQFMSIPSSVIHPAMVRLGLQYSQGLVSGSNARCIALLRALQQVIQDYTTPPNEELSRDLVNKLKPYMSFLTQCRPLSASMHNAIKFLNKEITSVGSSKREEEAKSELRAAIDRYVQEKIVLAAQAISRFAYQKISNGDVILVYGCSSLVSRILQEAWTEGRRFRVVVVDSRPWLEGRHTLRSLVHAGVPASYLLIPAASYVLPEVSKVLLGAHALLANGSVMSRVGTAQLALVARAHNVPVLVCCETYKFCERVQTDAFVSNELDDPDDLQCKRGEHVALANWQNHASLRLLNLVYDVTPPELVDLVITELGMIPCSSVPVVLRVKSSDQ
Sequence of eIF2Bα^V183F (Q9NR50 whole entry partner): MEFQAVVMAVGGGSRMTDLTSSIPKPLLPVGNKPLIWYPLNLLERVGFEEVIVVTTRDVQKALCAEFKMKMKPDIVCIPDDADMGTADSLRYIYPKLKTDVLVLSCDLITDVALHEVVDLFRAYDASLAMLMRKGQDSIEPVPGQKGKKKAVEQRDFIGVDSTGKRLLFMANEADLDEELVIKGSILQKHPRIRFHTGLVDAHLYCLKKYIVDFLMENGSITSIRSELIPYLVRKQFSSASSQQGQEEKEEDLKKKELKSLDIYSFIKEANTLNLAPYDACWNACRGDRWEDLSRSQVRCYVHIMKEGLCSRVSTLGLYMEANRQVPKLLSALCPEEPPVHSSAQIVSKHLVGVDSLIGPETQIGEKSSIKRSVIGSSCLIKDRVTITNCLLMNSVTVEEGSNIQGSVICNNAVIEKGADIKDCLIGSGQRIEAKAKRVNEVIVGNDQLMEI
Sequence of eIF2Bα^V183F (Q13144 whole entry partner): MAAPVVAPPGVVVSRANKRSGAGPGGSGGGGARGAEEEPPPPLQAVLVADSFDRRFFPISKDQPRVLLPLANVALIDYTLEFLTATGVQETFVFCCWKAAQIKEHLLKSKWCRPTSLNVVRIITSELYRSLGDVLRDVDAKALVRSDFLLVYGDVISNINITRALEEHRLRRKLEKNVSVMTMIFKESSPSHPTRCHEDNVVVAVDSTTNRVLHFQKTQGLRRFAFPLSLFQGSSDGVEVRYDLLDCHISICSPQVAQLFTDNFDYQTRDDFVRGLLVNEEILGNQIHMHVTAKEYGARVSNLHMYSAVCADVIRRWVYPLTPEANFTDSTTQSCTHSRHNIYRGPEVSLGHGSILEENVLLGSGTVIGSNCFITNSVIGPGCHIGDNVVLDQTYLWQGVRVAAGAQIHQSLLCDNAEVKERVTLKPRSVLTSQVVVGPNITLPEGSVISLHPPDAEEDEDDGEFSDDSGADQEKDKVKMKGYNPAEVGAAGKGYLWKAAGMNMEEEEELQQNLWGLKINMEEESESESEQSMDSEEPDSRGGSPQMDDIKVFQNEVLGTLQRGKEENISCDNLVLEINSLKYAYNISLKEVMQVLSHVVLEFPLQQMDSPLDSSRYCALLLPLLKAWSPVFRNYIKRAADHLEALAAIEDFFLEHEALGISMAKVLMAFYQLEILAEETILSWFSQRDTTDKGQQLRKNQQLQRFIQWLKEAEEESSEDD
T3 sequence (P49770 whole entry, one chain of several): as the sequence (P49770 whole entry partner) above
T3 sequence (Q9UI10 whole entry, one chain of several): as the sequence (Q9UI10 whole entry partner) above
T3 sequence (Q9NR50 whole entry partner, one chain of several): as the sequence (Q9NR50 whole entry partner) above
T3 sequence (Q13144 whole entry partner, one chain of several): as the sequence (Q13144 whole entry partner) above
T1 sequence (P49770 whole entry, one chain of several): as the sequence (P49770 whole entry partner) above
T1 sequence (Q9UI10 whole entry, one chain of several): as the sequence (Q9UI10 whole entry partner) above
T1 sequence (Q9NR50 whole entry partner, one chain of several): as the sequence (Q9NR50 whole entry partner) above
T1 sequence (Q13144 whole entry partner, one chain of several): as the sequence (Q13144 whole entry partner) above

Consider `O=C(CO)[C@@H](O)[C@H](O)[C@H](O)COP(=O)(O)O` [F6P, fructose-6-phosphate], for which the “co-immunoprecipitation of phospho-eIF2α with FLAG-tagged eIF2B” value in assay [1] is “did not decrease the interaction”. Besides, the “MIDAS result (enrichment in the protein chamber / hit status)” value at eIF2Bα is given as “not a MIDAS hit”. Further, in assay [2], the “effect on GEF activity of WT lysate” value is reported as “stimulated”. Also, at eIF2Bα^V183F, the “eIF2Bα V183F monomer peak” value is given as “significant reduction of the eIF2Bα^V183F monomer peak”.
